Our source for the TGI values is PubChem BioAssay (NCI).

Among the test systems are 786-0 renal; A498 renal; A549 NSCLC; BT-549 breast; EKVX NSCLC; HOP-62 NSCLC; K-562 leukemia; KM12 colon; M14 melanoma; NCI-H460 lung; OVCAR-4 ovarian; OVCAR-5 ovarian; RXF 393 renal; SF-295 CNS; SK-MEL-2 melanoma; SK-MEL-28 melanoma; SR leukemia; SW-620 colon; UACC-257 melanoma; UO-31 renal.
Holding throughout (assay): NCI-60 cell line screen, 48 h

Structures are written as SMILES.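 All cell lines were grown in 96-well plates and treated with compound for 48 hours. At the TGI there is no net growth.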 Where only a bound is given, the exact number is not on record here.

Take `CC(C)(C)OC(=O)CCCCCNC(=O)CCCCCNC(=O)CCC(CN(CC(=O)OCc1ccccc1)CC(=O)OCc1ccccc1)N(CC(=O)OCc1ccccc1)CC(=O)OCc1ccccc1` (stereo not given): the TGI in the assay on 786-0 renal, with A498 renal, in the assay with A549 NSCLC, in the assay on BT-549 breast, with EKVX NSCLC and in the assay on HOP-62 NSCLC was > 100 µM each time. For the same compound, the TGI in the assay on K-562 leukemia, in the assay on KM12 colon, in the assay on M14 melanoma, in the assay on NCI-H460 lung, in the assay with OVCAR-4 ovarian and in the assay with OVCAR-5 ovarian was > 100 µM throughout. Moreover, the TGI in the assay on RXF 393 renal, in the assay on SF-295 CNS, in the assay on SK-MEL-2 melanoma, in the assay with SK-MEL-28 melanoma, in the assay on SR leukemia and in the assay on SW-620 colon was > 100 µM each time. In addition, the TGI in the assay on UACC-257 melanoma and in the assay with UO-31 renal was > 100 µM throughout.
On to `Cc1ccc2nc(NS(=O)(=O)c3cc(C)c(Cl)cc3S)[nH]c2c1`, for which the TGI in the assay on 786-0 renal, in the assay with A498 renal, with A549 NSCLC, in the assay with BT-549 breast, with EKVX NSCLC and in the assay on HOP-62 NSCLC was > 100 µM in each case. In addition, the TGI was > 100 µM in the assay on K-562 leukemia; > 100 µM in the assay with KM12 colon; > 100 µM in the assay on M14 melanoma; 38.6 µM with NCI-H460 lung; > 100 µM in the assay with OVCAR-4 ovarian; > 100 µM with OVCAR-5 ovarian. The TGI in the assay with RXF 393 renal, in the assay on SF-295 CNS, in the assay with SK-MEL-2 melanoma, in the assay with SK-MEL-28 melanoma, in the assay on SR leukemia and in the assay on SW-620 colon was > 100 µM in each case. Moreover, the TGI in the assay with UACC-257 melanoma and with UO-31 renal was > 100 µM in each case.
Take `CCOC(=O)c1nc2ccc(C(F)(F)F)cc2nc1Nc1ccc(OC)cc1`: the TGI in the assay on 786-0 renal was > 100 µM; with A498 renal, > 100 µM; with A549 NSCLC it was > 100 µM; in the assay on BT-549 breast, 86.4 µM; with EKVX NSCLC, > 100 µM; in the assay on HOP-62 NSCLC, 63.5 µM. Also, the TGI in the assay on K-562 leukemia is > 100 µM; in the assay on KM12 colon it was > 100 µM; in the assay with M14 melanoma, > 100 µM; in the assay with NCI-H460 lung it was > 100 µM; with OVCAR-4 ovarian, 49.1 µM; with OVCAR-5 ovarian, > 100 µM. In addition, the TGI in the assay on RXF 393 renal is 70.1 µM; with SF-295 CNS it was 77.6 µM; with SK-MEL-2 melanoma, > 100 µM; in the assay on SK-MEL-28 melanoma it was > 100 µM; with SR leukemia it was > 100 µM; in the assay on SW-620 colon, > 100 µM. The TGI with UACC-257 melanoma and in the assay with UO-31 renal was > 100 µM in each case.
Take `COc1cc(C2c3cc4c(cc3C(=O)C3CCC(=O)N32)OCO4)cc(OC)c1O` (stereo not given): the TGI with 786-0 renal, with A498 renal, in the assay on A549 NSCLC, in the assay with BT-549 breast, with EKVX NSCLC and with HOP-62 NSCLC was > 50 µM in each case. The TGI in the assay on K-562 leukemia, with KM12 colon, in the assay with M14 melanoma, in the assay on NCI-H460 lung, in the assay with OVCAR-4 ovarian and with OVCAR-5 ovarian was > 50 µM each time. Further, the TGI in the assay with RXF 393 renal, in the assay on SF-295 CNS, in the assay on SK-MEL-2 melanoma, in the assay on SK-MEL-28 melanoma, in the assay on SR leukemia and in the assay on SW-620 colon was > 50 µM in each case. The TGI in the assay with UACC-257 melanoma and in the assay with UO-31 renal was > 50 µM throughout.
Consider `C=CCN1CCC(c2cc(C(=O)OCC)[nH]c2-c2cc(C)no2)C1=O` (stereo not given), for which the TGI in the assay on 786-0 renal, with A498 renal, in the assay with A549 NSCLC, in the assay with BT-549 breast, with EKVX NSCLC and with HOP-62 NSCLC was > 100 µM each time. The TGI in the assay with K-562 leukemia, in the assay on KM12 colon, in the assay with M14 melanoma, with NCI-H460 lung, in the assay with OVCAR-4 ovarian and in the assay on OVCAR-5 ovarian was > 100 µM in each case. Besides, the TGI with RXF 393 renal, with SF-295 CNS, in the assay with SK-MEL-2 melanoma, in the assay on SK-MEL-28 melanoma, in the assay on SR leukemia and in the assay on SW-620 colon was > 100 µM throughout. The TGI in the assay with UACC-257 melanoma and in the assay with UO-31 renal was > 100 µM in each case.
For the compound `Cc1sc2nc3n(c(=O)c2c1C)N=CN(c1ccc(Cl)cc1)C3`, the TGI in the assay on 786-0 renal, in the assay with A498 renal, with A549 NSCLC, with BT-549 breast, with EKVX NSCLC and in the assay with HOP-62 NSCLC was > 100 µM throughout. Moreover, the TGI in the assay with K-562 leukemia, in the assay with KM12 colon, in the assay on M14 melanoma, in the assay on NCI-H460 lung, in the assay on OVCAR-4 ovarian and in the assay on OVCAR-5 ovarian was > 100 µM throughout. The TGI in the assay on RXF 393 renal, in the assay with SF-295 CNS, with SK-MEL-2 melanoma, with SK-MEL-28 melanoma, in the assay on SR leukemia and in the assay with SW-620 colon was > 100 µM in each case. For the same compound, the TGI with UACC-257 melanoma and in the assay with UO-31 renal was > 100 µM in each case.
`COc1ccc(COCC[C@H](C)OC2OC(CO)C(O)C(O)C2O)cc1` (stereo not given in full): the TGI in the assay with 786-0 renal, with A498 renal, in the assay on A549 NSCLC, in the assay on BT-549 breast, in the assay on EKVX NSCLC and with HOP-62 NSCLC was > 100 µM throughout. In addition, the TGI in the assay on K-562 leukemia, with KM12 colon, in the assay on M14 melanoma, in the assay on NCI-H460 lung, in the assay with OVCAR-4 ovarian and in the assay on OVCAR-5 ovarian was > 100 µM each time. For the same compound, the TGI with RXF 393 renal, in the assay on SF-295 CNS, in the assay with SK-MEL-2 melanoma, with SK-MEL-28 melanoma, with SR leukemia and with SW-620 colon was > 100 µM in each case. The TGI with UACC-257 melanoma and in the assay on UO-31 renal was > 100 µM in each case.
Turning to `CCOc1ccc(NC(=O)C(=O)Nn2c(N)nnc2N)cc1`, the TGI in the assay with 786-0 renal, in the assay with A498 renal, in the assay on A549 NSCLC, in the assay on BT-549 breast, with EKVX NSCLC and in the assay on HOP-62 NSCLC was > 100 µM throughout. Also, the TGI in the assay with K-562 leukemia, in the assay on KM12 colon, in the assay with M14 melanoma, in the assay on NCI-H460 lung, in the assay on OVCAR-4 ovarian and in the assay with OVCAR-5 ovarian was > 100 µM throughout. The TGI in the assay on RXF 393 renal, with SF-295 CNS, with SK-MEL-2 melanoma, with SK-MEL-28 melanoma, in the assay on SR leukemia and with SW-620 colon was > 100 µM in each case. In addition, the TGI in the assay on UACC-257 melanoma and with UO-31 renal was > 100 µM in each case.
Take `C[C@@H]1CC[C@@H]2[C@@H](C1)O[C@@H]([C@@H](C)OCc1ccccc1)SC2(C)C`: the TGI in the assay with 786-0 renal was 34 µM; in the assay with A498 renal, 32 µM; in the assay with A549 NSCLC, 83.4 µM; with BT-549 breast, 42.6 µM; in the assay with EKVX NSCLC, 67.4 µM; in the assay on HOP-62 NSCLC it was 32.3 µM. Also, the TGI worked out at 36 µM in the assay with K-562 leukemia; 34.4 µM with KM12 colon; 37.7 µM in the assay on M14 melanoma; 49.1 µM in the assay with NCI-H460 lung; 69.7 µM with OVCAR-4 ovarian; 32.9 µM in the assay with OVCAR-5 ovarian. The TGI was found to be 30.7 µM in the assay with RXF 393 renal; 31.2 µM in the assay on SF-295 CNS; 31 µM with SK-MEL-2 melanoma; 60.4 µM in the assay with SK-MEL-28 melanoma; 34.9 µM in the assay on SR leukemia; 34 µM in the assay on SW-620 colon. Besides, the TGI in the assay on UACC-257 melanoma stood at 39.9 µM; with UO-31 renal, 30.6 µM.
